Source: patent publication US4181731A, “Novel therapeutic application of 4-carbamoyl-5-hydroxyimidazole” (Sumitomo Chemical Company, Limited, priority 1978, dated 1980)

What was measured:
[1] = Acute toxicity against mice; conditions: mouse, in vivo, mice (ICR, male, 22-25 g)
From the text: Acute toxicity of Compound A against mice (ICR, male, body weight 22-25 g) was as follows.

adjuvant arthritis = experiment: Inhibitory effects on the adjuvant arthritis of rats (antirheumatic activity); type: in vivo; conditions: for Foot Volume: control 2.34 ml; for Inhibition Rate: foot volume
Protocol: The antirheumatic activities on adjuvant arthritis were estimated according to the methods described in "Arzneimittel-Forschung (Drug Res.)", Vol. 22, p. 1959 (1972).
*Successive administration was performed immediately after inoculation of […]

Masuji nephritis = experiment: Antinephritic effects on Masuji nephritis; type: in vivo; conditions: for Urinary Protein: control 238.9; for Inhibition Ratio: urinary protein
From the text: The antinephritic activities were estimated according to the methods described in "Arerugii", Vol. 24, p. 472 (1975) (in Japanese).
*Successive oral administration began for 2 days before the injection of […]

mice (ICR, male) = experiment: Subacute toxicities against mice (oral, 21 days); type: in vivo; conditions: 100 mg/kg/day orally
Protocol: Subacute toxicities of Compound A against mice (ICR, male, body weight approximately 25 g) were as follows. The said compound was orally administered for 21 days. The dosage level was 100 mg/kg/day.

NC(=O)c1nc[nH]c1O [Compound A, 4-carbamoyl-5-hydroxyimidazole]
LD50 ([1]; ip): > 500 mg/kg
LD50 ([1]; iv): > 130 mg/kg
LD50 ([1]; po): > 2000 mg/kg
Foot Volume (adjuvant arthritis; 5 mg/kg/day × 21, p.o.): 1.28 mL
Foot Volume (adjuvant arthritis; 10 mg/kg/day × 21, p.o.): 0.88 mL
Foot Volume (adjuvant arthritis; 25 mg/kg/day × 21, p.o.): 0.44 mL
Inhibition Rate (adjuvant arthritis; 5 mg/kg/day × 21, p.o.): 45.3%
Inhibition Rate (adjuvant arthritis; 10 mg/kg/day × 21, p.o.): 62.3%
Inhibition Rate (adjuvant arthritis; 25 mg/kg/day × 21, p.o.): 81.2%
Urinary Protein (Masuji nephritis; 5 mg/kg/day × 16, p.o.): 147.6 mg/24 hrs.
Urinary Protein (Masuji nephritis; 10 mg/kg/day × 16, p.o.): 68.4 mg/24 hrs.
Urinary Protein (Masuji nephritis; 25 mg/kg/day × 16, p.o.): 28.4 mg/24 hrs.
Inhibition Ratio (Masuji nephritis; 5 mg/kg/day × 16, p.o.): 38.2%
Inhibition Ratio (Masuji nephritis; 10 mg/kg/day × 16, p.o.): 71.4%
Inhibition Ratio (Masuji nephritis; 25 mg/kg/day × 16, p.o.): 88.1%
Autopsy (mice (ICR, male)): No adverse effect
Body weight change (mice (ICR, male)): Normal
Clinical signs (mice (ICR, male)): No adverse effect except slight involution of the spleen
Food consumption (mice (ICR, male)): Normal
Haematology, overall finding (mice (ICR, male)): No adverse effect
Relative organ weight, Heart (average) (mice (ICR, male)): 0.49%
Relative organ weight, Kidney (average) (mice (ICR, male)): 1.50%
Relative organ weight, Liver (average) (mice (ICR, male)): 6.24%
Relative organ weight, Lung (average) (mice (ICR, male)): 0.81%
Relative organ weight, Spleen (average) (mice (ICR, male)): 0.30%
Relative organ weight, Testis (average) (mice (ICR, male)): 0.38%
Relative organ weight, Thymus (average) (mice (ICR, male)): 0.20%
Urinalysis, overall finding (mice (ICR, male)): No adverse effect
GOT (average) (mice (ICR, male); Haematology): 54.4 K.U.
Hematocrit value (average) (mice (ICR, male); Haematology): 35%
Hemoglobin (average) (mice (ICR, male); Haematology): 15.1 g/dL
Red blood cells (average) (mice (ICR, male); Haematology): 6.0 × 10^6 /mm^3
White blood cells (average) (mice (ICR, male); Haematology): 6.5 × 10^4 /mm^3
Glucose (urinalysis) (mice (ICR, male); Urinalysis): Negative
Occult blood (urinalysis) (mice (ICR, male); Urinalysis): Negative
Protein (urinalysis) (mice (ICR, male); Urinalysis): 30 to 100 mg/dL
pH (urinalysis) (mice (ICR, male); Urinalysis): 6.0-6.5
